Experimental data taken from patent publication US9072295B2, “Herbicidal compositions” (Syngenta Participations AG, priority 2011, dated 2015).

Tests used:
[1] = system: maize varieties (LEXXOR, PACTOL, CLAXXON, GARLAND and SUNDANCE); assay: Greenhouse study: herbicidal damage to maize after pre-emergence PPGO inhibiting herbicides, with or without safener seed treatment; assay type: in vivo; conditions: seed treatment 1 g/kg seed; 8 DAA
Experimental: A greenhouse study is performed to evaluate the safener response of various maize varieties to various PPGO inhibiting herbicides. […] Control seed is also included in the test which contains no safener seed treatment. Herbicide treatments are applied pre-emergence, at the indicated application rates, using a laboratory tracksprayer with a TeeJet 11002VS nozzle. The sprayer is set to deliver an output of 200 L/ha by applying an air pressure of 2 bar. The treated and control seeds are then planted in the treated sandy loam soil contained in 10 cm deep plastic trays and watered from the top of the trays as needed.

Winter wheat = assay: Field test: herbicidal damage to winter wheat after pre-emergence fomesafen, with or without safener A seed treatment; conditions: seed treatment 100 g/100 kg seed; fomesafen up to 560 g/ha
Experimental: Winter wheat seed is treated with safener A (1-[4-(N-2-methoxybenzoylsulfamoyl)phenyl]-3-methylurea) at 100 g safener/100 kg of seed. Control seed is also included which contains no safener seed treatment. The wheat seed is then planted in a field as a randomized block design including four replications.

With `CNC(=O)Nc1ccc(S(=O)(=O)NC(=O)c2ccccc2OC)cc1` [Safener A, 1-[4-(N-2-methoxybenzoylsulfamoyl)phenyl]-3-methylurea] the “Safening against sulfentrazone in maize” value [1] was “particularly good safening”, the “Safening of the various PPGO inhibiting herbicides tested in maize” value [1] was “highly effective safening” and the “Safening of fomesafen in winter wheat” value (Winter wheat) was “highly effective safening”.
